Source: PubChem BioAssay (NCI)
Where “and” joins values, the source holds several entries; their conditions need not be identical. Equal values may be shown once.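 Values below derive from 48-hour exposures of cells grown in 96-well plates, with endpoints linearly interpolated between the two concentrations bracketing the appropriate inhibition level. Here, GI50 denotes the concentration required for 50% inhibition of growth. TGI: concentration producing complete growth inhibition.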

What was measured:
Assay in all cases: growth of human tumour cells (NCI), 48 h
[1] = system: HL-60(TB) leukemia
[2] = system: SF-295 CNS
[3] = system: SK-MEL-28 melanoma
[4] = system: SK-MEL-5 melanoma
[5] = system: HCT-15 colon
[6] = system: CAKI-1 renal
[7] = system: HT29 colon
[8] = system: NCI-H522 lung
[9] = system: CCRF-CEM leukemia
[10] = system: M14 melanoma

Oc1ccc(Cl)cc1/C=N\NC(=S)N/N=C/c1cc(Cl)ccc1O
GI50 [1]: 1.37 µM
TGI [1]: 4.23 µM
GI50 [2]: 3 µM
TGI [2]: > 100 µM
GI50 [3]: 4.58 µM
TGI [3]: > 100 µM
GI50 [4]: 1.34 µM
TGI [4]: 3.88 µM
GI50 [5]: 0.997 µM
TGI [5]: > 100 µM
GI50 [6]: 1.24 µM
TGI [6]: 8.48 µM
GI50 [7]: 5.13 µM
TGI [7]: 54.4 µM
GI50 [8]: 1.45 µM
TGI [8]: 5.15 µM
GI50 [9]: 0.468 µM
TGI [9]: 12.1 µM

Cn1cc(NC(=O)Nc2cc(C(=O)Nc3cc(C(=O)Nc4cc(S(=O)(=O)O)c5cc(S(=O)(=O)O)cc(S(=O)(=O)O)c5c4)n(C)c3)n(C)c2)cc1C(=O)Nc1cc(C(=O)Nc2cc(S(=O)(=O)O)c3cc(S(=O)(=O)O)cc(S(=O)(=O)O)c3c2)n(C)c1
TGI [1]: > 100 µM
TGI [2]: > 100 µM
TGI [3]: > 100 µM
TGI [4]: > 100 µM
TGI [5]: > 100 µM
TGI [10]: > 100 µM
TGI [7]: > 100 µM
TGI [8]: > 100 µM
TGI [9]: > 100 µM

CC(C)(C)Sc1nnc(SC(C)(C)C)c2c(=O)[nH]nc(SC(C)(C)C)c12
TGI [1]: 16.1 µM
TGI [2]: 23.8 µM
TGI [4]: 17.2 µM
TGI [5]: 16.4 µM
TGI [10]: 28.9 µM
TGI [6]: 16.3 µM
TGI [7]: 19.1 µM
TGI [8]: 14.2 µM
TGI [9]: 28.1 µM

CCCCCCCCCCSC(=N)N
GI50 [2]: 1.72 µM
TGI [2]: 3.51 µM
GI50 [3]: 3.67 µM
TGI [3]: 14.1 µM
GI50 [4]: 2.12 µM
TGI [4]: 4.71 µM
GI50 [5]: 2.01 µM
TGI [5]: 4.73 µM
GI50 [10]: 1.89 µM
TGI [10]: 3.57 µM
GI50 [6]: 1.75 µM
TGI [6]: 5.26 µM
GI50 [7]: 1.42 µM
TGI [7]: 2.84 µM
GI50 [8]: 1.56 µM
TGI [8]: 3.47 µM

CC(=O)OC(=O)O/C=C\CCl
TGI [1]: > 100 µM
TGI [3]: > 100 µM
TGI [4]: > 100 µM
TGI [5]: > 100 µM
TGI [10]: > 100 µM
TGI [6]: > 100 µM
TGI [8]: 33.1 µM
TGI [9]: > 100 µM

Cn1cc(-c2nc(N[C@@H]3CCCC[C@@H]3N)c(F)c3c2C(=O)NC3)cn1
GI50 [1]: 9.21 µM and 11.2 µM
TGI [1]: 37 µM and 40.9 µM
GI50 [2]: 3.95 µM and 3.5 µM
TGI [2]: > 77.2 µM
GI50 [3]: 8.96 µM and 10.8 µM
TGI [3]: > 100 µM
GI50 [4]: 29.2 µM and 22.6 µM
TGI [4]: > 100 µM
GI50 [5]: 12 µM and 13.3 µM
TGI [5]: > 100 µM
GI50 [10]: 1.56 µM and 1.67 µM
TGI [10]: > 96.1 µM
GI50 [7]: 4.33 µM and 5.99 µM
TGI [7]: 81.5 µM and > 94.4 µM
GI50 [8]: 12.8 µM and 13.1 µM
TGI [8]: 66.5 µM and > 91.1 µM
GI50 [9]: 5.09 µM and 5.26 µM
TGI [9]: > 100 µM

O=CCCCC(Sc1ccccc1)Sc1ccccc1
TGI [1]: 78.3 µM
TGI [2]: 40.7 µM
TGI [3]: 32 µM
TGI [4]: 30.8 µM
TGI [5]: 33.2 µM
TGI [10]: 51.3 µM
TGI [6]: > 100 µM
TGI [8]: > 100 µM
TGI [9]: 44.6 µM

CC(C)N1C(C)[C@@H](c2ccccc2)O[P@]1(=O)CC1=CCCCC1 (some centres undefined)
TGI [1]: 57.4 µM
TGI [2]: > 100 µM
TGI [3]: > 100 µM
TGI [4]: > 100 µM
TGI [5]: > 100 µM
TGI [10]: > 100 µM
TGI [7]: > 100 µM
TGI [8]: > 100 µM
TGI [9]: > 100 µM

CCOC(=O)c1c(C)n(Cc2ccccc2)c2c1cc1oc(=O)c(=O)n3cnc2c13
GI50 [1]: 14.5 µM
TGI [1]: > 50 µM
GI50 [2]: 16.2 µM
TGI [2]: > 50 µM
GI50 [3]: 40.4 µM
TGI [3]: > 50 µM
GI50 [4]: 10.4 µM
TGI [4]: 26.7 µM
GI50 [5]: 16.2 µM
TGI [5]: > 50 µM
GI50 [10]: 18.3 µM
TGI [10]: > 50 µM
GI50 [6]: 14.7 µM
TGI [6]: 48.8 µM
GI50 [7]: 18.3 µM
TGI [7]: > 50 µM
GI50 [8]: > 50 µM
TGI [8]: > 50 µM

N#CC(C(=O)CCCC(=O)Nc1ccc(Cl)cc1Cl)c1ccc(Cl)cc1 (centres undefined)
TGI [1]: > 100 µM
TGI [2]: > 100 µM
TGI [3]: > 100 µM
TGI [5]: > 100 µM
TGI [10]: > 100 µM
TGI [6]: > 100 µM
TGI [7]: > 100 µM
TGI [8]: > 100 µM

COc1cc(-c2cc(=O)c3c(O)c(OC)c(OC)c(OC)c3o2)cc(OC)c1OC
TGI [1]: > 100 µM
TGI [2]: > 100 µM
TGI [3]: > 100 µM
TGI [4]: > 100 µM
TGI [5]: > 100 µM
TGI [10]: > 100 µM
TGI [7]: > 100 µM
TGI [8]: 98.6 µM
TGI [9]: > 100 µM

O=C(c1ccc2ccccc2c1)c1c(C(F)(F)F)n([O-])c2ccc(F)cc2[n+]1=O
GI50 [1]: 0.266 µM
TGI [1]: 2.23 µM
GI50 [3]: 1.68 µM
TGI [3]: 3.18 µM
GI50 [4]: 1.75 µM
TGI [4]: 3.16 µM
GI50 [5]: 0.354 µM
TGI [5]: 1.26 µM
GI50 [10]: 1.67 µM
TGI [10]: 3.11 µM
GI50 [7]: 1.36 µM
TGI [7]: 3.02 µM
GI50 [9]: 1.6 µM
TGI [9]: 5.26 µM

Cc1ccc(/C=N/NS(=O)(=O)c2ccccc2)c(C)c1
TGI [1]: > 100 µM
TGI [2]: > 100 µM
TGI [3]: > 100 µM
TGI [4]: > 100 µM
TGI [5]: > 100 µM
TGI [10]: > 100 µM
TGI [6]: > 100 µM
TGI [7]: > 100 µM
TGI [9]: > 100 µM

CC(N1CCOCC1)C(O)(c1ccccc1)c1ccccn1 (centres undefined)
TGI [1]: > 100 µM
TGI [2]: > 100 µM
TGI [3]: > 100 µM
TGI [4]: > 100 µM
TGI [5]: > 100 µM
TGI [10]: > 100 µM
TGI [6]: > 100 µM
TGI [7]: > 100 µM
TGI [8]: > 100 µM

C/C(CC(=O)Nc1cccc([N+](=O)[O-])c1)=N\NC(=O)CC#N
TGI [1]: > 100 µM
TGI [2]: > 100 µM
TGI [3]: > 100 µM
TGI [4]: > 100 µM
TGI [10]: > 100 µM
TGI [7]: > 100 µM
TGI [8]: > 100 µM
TGI [9]: > 100 µM

c1ccc(-c2ccnc3c2ccc2c(-c4ccccc4)ccnc23)cc1
TGI [1]: 3.69 µM
TGI [3]: 19.9 µM
TGI [4]: 11.2 µM
TGI [10]: 17.6 µM
TGI [7]: 10.8 µM
TGI [8]: 5.92 µM
TGI [9]: 2.84 µM

COc1ccc(C)cc1C1CCC(=O)O1 (centres undefined)
TGI [1]: > 100 µM
TGI [2]: > 100 µM
TGI [3]: > 100 µM
TGI [4]: > 100 µM
TGI [5]: > 100 µM
TGI [10]: > 100 µM
TGI [7]: > 100 µM
TGI [8]: > 100 µM
TGI [9]: > 100 µM

O=S1(=O)c2ccccc2N=C(c2ccccc2Cl)CC1c1ccc(F)cc1 (centres undefined)
TGI [1]: 45.4 µM
TGI [2]: 34.4 µM
TGI [3]: 32.7 µM
TGI [4]: 31.4 µM
TGI [5]: 35.6 µM
TGI [10]: 35.3 µM
TGI [6]: 34.3 µM
TGI [8]: 26.9 µM
TGI [9]: 50.5 µM

Cc1cc2nc(-c3c(F)cccc3Cl)n(Cc3c(F)cccc3Cl)c2cc1C
GI50 [2]: 6.92 µM
TGI [2]: 33.3 µM
GI50 [3]: 24.8 µM
TGI [3]: 55.2 µM
GI50 [4]: 11.2 µM
TGI [4]: 23.6 µM
GI50 [5]: 13.9 µM
TGI [5]: 33.3 µM
GI50 [10]: 11.5 µM
TGI [10]: 26.7 µM
GI50 [6]: 2.92 µM
TGI [6]: 14.6 µM
GI50 [7]: 10.5 µM
TGI [7]: > 100 µM
GI50 [8]: 20.3 µM
TGI [8]: 48.9 µM
GI50 [9]: 2.6 µM
TGI [9]: > 100 µM
